These results are taken from ChEMBL document CHEMBL5715954, “Silencing c-Myc translation as a therapeutic strategy through targeting PI3Kδ and CK1ε in hematological malignancies” (Blood, 2017).

Holding throughout (set-up): scale not given: the % may be the effect or the level left
In experiment [1] the target is Bone morphogenetic protein receptor type-1B (Homo sapiens) (UniProt O00238). Put plainly: Inhibition of human ALK6 assessed as enzyme activity at 1 uM using casein as substrate preincubated for 20 mins followed by [gamma-33P]-ATP addition and measured after 120 mins by radiometric Hot-SpotSM Kinase assay relative to control.
Bone morphogenetic protein receptor type-1B (Homo sapiens), sequence (O00238 whole entry): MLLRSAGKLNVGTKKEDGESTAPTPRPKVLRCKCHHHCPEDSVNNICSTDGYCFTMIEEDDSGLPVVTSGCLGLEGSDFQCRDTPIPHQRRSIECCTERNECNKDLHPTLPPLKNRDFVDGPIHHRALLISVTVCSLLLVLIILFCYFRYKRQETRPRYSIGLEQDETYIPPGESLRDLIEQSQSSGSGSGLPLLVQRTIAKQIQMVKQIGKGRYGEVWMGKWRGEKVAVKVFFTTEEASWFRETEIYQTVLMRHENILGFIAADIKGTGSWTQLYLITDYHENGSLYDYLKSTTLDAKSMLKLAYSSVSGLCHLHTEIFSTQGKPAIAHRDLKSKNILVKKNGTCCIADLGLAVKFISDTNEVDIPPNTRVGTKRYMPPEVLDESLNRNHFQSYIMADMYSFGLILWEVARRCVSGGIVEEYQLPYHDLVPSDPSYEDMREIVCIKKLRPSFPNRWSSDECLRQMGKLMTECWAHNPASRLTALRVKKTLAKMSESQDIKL
Experiment [2] has as its target CDK17/Cyclin-Y (Homo sapiens) (UniProt Q00537+Q8ND76). In words: Inhibition of human CDK17/cyclin Y assessed as enzyme activity at 1 uM using myelin basic protein as substrate preincubated for 20 mins followed by [gamma-33P]-ATP addition and measured after 120 mins by radiometric Hot-SpotSM Kinase assay relative to control. The class given is protein-complex assay.

Experiment [3] concerns the target Casein kinase I isoform epsilon (Homo sapiens, UniProt P49674). Put plainly: Inhibition of human CK1epsilon assessed as enzyme activity at 1 uM using KRRRAL[pS]VASLPGL as substrate preincubated for 20 mins followed by [gamma-33P]-ATP addition and measured after 120 mins by radiometric Hot-SpotSM Kinase assay relative to control.
Experiment [4] concerns the target T1, Interleukin-1 receptor-associated kinase 4 (Homo sapiens) (UniProt Q9NWZ3).
T1 sequence (whole entry): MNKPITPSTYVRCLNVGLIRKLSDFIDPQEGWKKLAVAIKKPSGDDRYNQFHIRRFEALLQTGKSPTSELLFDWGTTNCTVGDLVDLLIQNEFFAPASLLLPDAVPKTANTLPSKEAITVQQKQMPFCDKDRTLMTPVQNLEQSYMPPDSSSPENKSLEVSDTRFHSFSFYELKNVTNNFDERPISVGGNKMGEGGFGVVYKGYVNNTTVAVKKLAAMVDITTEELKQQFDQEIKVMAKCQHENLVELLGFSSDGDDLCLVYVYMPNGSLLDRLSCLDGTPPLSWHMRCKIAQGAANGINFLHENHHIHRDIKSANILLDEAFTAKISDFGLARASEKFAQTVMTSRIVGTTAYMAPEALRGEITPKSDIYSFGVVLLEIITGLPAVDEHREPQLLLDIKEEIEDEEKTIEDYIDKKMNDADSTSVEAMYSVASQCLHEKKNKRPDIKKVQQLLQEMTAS
Put plainly: Inhibition of human IRAK4 assessed as enzyme activity at 1 uM using myelin basic protein as substrate preincubated for 20 mins followed by [gamma-33P]-ATP addition and measured after 120 mins by radiometric Hot-SpotSM Kinase assay relative to control.

Experiment [5] deals with Mitogen-activated protein kinase kinase kinase 9 (Homo sapiens) (UniProt P80192). Put plainly: Inhibition of human MLK1 assessed as enzyme activity at 1 uM using casein as substrate preincubated for 20 mins followed by [gamma-33P]-ATP addition and measured after 120 mins by radiometric Hot-SpotSM Kinase assay relative to control.
Experiment [6] concerns the target Myosin-IIIa (Homo sapiens) (UniProt Q8NEV4). Put plainly: Inhibition of human MYO3A assessed as enzyme activity at 1 uM using myelin basic protein as substrate preincubated for 20 mins followed by [gamma-33P]-ATP addition and measured after 120 mins by radiometric Hot-SpotSM Kinase assay relative to control.
The target in experiment [7] is Serine/threonine-protein kinase PAK 6 (Homo sapiens) (UniProt Q9NQU5). Put plainly: Inhibition of human PAK6 assessed as enzyme activity at 1 uM using RRRLSFAEPG as substrate preincubated for 20 mins followed by [gamma-33P]-ATP addition and measured after 120 mins by radiometric Hot-SpotSM Kinase assay relative to control.
Serine/threonine-protein kinase PAK 6 (Homo sapiens), sequence (Q9NQU5 whole entry, looked up): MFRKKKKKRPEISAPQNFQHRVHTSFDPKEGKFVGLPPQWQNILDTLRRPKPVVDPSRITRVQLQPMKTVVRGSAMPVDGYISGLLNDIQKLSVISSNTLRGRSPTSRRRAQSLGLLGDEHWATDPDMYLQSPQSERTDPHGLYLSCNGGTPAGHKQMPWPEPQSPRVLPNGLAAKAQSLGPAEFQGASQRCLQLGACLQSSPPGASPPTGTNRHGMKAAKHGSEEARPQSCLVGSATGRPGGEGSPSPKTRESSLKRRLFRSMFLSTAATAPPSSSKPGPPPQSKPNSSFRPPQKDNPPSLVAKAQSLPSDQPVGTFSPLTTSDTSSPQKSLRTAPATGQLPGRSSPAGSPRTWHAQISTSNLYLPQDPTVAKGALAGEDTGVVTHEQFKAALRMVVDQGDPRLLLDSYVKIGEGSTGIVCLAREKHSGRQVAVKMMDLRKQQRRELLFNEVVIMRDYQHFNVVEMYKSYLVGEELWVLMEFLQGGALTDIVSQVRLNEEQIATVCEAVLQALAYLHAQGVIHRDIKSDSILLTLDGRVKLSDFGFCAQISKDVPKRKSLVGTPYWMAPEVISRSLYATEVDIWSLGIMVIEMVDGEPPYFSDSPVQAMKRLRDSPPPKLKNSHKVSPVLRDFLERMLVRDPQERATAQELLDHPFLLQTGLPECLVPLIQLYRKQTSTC
Experiment [8] addresses Protein kinase C gamma type (Homo sapiens) (UniProt P05129). In words: Inhibition of human PKCg assessed as enzyme activity at 1 uM using ERMRPRKRQGSVRRRV as substrate preincubated for 20 mins followed by [gamma-33P]-ATP addition and measured after 120 mins by radiometric Hot-SpotSM Kinase assay relative to control.
In experiment [9] the target is T2, cGMP-dependent protein kinase 1 (Homo sapiens) (UniProt Q13976).
T2 sequence (whole entry): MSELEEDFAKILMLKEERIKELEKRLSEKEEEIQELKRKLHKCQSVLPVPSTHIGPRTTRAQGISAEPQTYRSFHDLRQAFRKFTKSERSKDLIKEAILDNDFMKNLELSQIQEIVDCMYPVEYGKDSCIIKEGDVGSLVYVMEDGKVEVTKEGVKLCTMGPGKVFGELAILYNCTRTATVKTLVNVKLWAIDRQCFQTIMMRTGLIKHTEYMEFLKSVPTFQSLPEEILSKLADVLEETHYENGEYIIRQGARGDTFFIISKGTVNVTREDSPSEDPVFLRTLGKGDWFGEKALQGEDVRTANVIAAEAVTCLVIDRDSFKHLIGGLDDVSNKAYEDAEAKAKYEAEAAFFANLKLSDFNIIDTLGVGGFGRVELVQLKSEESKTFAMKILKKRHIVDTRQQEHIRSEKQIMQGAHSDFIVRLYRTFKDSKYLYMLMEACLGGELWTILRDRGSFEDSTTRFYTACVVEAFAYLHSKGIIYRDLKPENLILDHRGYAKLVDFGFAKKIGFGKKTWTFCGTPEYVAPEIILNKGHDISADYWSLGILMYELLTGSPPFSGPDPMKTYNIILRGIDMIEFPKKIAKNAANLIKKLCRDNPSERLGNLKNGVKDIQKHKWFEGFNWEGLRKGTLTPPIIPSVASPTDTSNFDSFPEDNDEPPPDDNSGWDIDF
In words: Inhibition of human PKG1a assessed as enzyme activity at 1 uM using LRRASLG as substrate preincubated for 20 mins followed by [gamma-33P]-ATP addition and measured after 120 mins by radiometric Hot-SpotSM Kinase assay relative to control.

Experiment [10] deals with Serine/threonine-protein kinase SIK3 (Homo sapiens) (UniProt Q9Y2K2). In words: Inhibition of human SIK3 assessed as enzyme activity at 1 uM using AMARAASAAALARRR as substrate preincubated for 20 mins followed by [gamma-33P]-ATP addition and measured after 120 mins by radiometric Hot-SpotSM Kinase assay relative to control.
Serine/threonine-protein kinase SIK3 (Homo sapiens), sequence (Q9Y2K2 whole entry, looked up): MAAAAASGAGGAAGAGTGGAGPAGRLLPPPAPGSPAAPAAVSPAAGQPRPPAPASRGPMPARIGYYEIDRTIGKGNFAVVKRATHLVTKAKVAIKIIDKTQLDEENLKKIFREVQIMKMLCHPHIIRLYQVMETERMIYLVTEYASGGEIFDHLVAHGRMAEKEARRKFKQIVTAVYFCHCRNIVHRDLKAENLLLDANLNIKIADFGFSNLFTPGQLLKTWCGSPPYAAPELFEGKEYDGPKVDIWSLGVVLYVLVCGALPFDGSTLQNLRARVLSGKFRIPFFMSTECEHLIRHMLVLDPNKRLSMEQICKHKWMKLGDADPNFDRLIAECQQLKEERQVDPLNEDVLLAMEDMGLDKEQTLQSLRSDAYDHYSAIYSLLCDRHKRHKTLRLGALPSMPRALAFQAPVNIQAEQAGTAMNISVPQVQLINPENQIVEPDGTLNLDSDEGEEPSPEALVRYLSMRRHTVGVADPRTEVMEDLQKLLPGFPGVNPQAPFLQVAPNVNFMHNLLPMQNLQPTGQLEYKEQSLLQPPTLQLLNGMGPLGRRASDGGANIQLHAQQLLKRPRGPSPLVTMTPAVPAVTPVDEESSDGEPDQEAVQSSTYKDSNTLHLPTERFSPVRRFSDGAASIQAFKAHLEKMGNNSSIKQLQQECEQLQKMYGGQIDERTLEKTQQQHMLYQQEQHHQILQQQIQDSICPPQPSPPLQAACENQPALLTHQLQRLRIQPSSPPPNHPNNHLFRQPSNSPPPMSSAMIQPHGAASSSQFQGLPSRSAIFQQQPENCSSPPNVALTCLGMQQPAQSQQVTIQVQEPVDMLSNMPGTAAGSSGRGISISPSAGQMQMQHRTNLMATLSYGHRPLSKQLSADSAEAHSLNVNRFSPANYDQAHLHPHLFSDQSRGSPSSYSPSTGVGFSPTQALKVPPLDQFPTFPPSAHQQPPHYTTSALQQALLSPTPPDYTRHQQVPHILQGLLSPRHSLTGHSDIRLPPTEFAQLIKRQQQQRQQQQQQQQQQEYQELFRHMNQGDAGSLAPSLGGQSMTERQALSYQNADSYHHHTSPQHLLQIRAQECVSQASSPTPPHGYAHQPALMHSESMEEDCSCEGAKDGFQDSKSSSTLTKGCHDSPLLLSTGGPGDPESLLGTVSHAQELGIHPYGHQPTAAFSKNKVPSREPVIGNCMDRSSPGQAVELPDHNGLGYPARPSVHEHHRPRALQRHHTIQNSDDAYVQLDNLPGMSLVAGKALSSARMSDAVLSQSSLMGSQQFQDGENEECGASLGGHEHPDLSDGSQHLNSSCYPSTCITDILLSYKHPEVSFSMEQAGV
In experiment [11] the target is Tyrosine-protein kinase Srms (Homo sapiens) (UniProt Q9H3Y6). Put plainly: Inhibition of human SRMS assessed as enzyme activity at 1 uM using poly[Glu:Tyr] (4:1) as substrate preincubated for 20 mins followed by [gamma-33P]-ATP addition and measured after 120 mins by radiometric Hot-SpotSM Kinase assay relative to control.
Tyrosine-protein kinase Srms (Homo sapiens), sequence (Q9H3Y6 whole entry): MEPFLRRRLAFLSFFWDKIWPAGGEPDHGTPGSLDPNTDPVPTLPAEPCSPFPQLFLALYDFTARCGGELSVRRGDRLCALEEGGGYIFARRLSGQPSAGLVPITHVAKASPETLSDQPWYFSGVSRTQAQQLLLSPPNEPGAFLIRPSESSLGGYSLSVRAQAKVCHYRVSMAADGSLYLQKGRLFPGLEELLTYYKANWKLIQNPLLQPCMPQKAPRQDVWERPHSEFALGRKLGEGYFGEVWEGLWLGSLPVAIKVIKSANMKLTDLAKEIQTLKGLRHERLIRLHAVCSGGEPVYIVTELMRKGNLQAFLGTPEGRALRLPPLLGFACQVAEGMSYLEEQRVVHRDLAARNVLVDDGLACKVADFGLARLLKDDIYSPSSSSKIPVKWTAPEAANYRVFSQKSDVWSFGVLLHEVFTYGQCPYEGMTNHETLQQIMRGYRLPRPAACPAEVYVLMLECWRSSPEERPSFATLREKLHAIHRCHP
The target in experiment [12] is SRSF protein kinase 2 (Homo sapiens) (UniProt P78362). Put plainly: Inhibition of human SRPK2 assessed as enzyme activity at 1 uM using GRSRSRSRSR as substrate preincubated for 20 mins followed by [gamma-33P]-ATP addition and measured after 120 mins by radiometric Hot-SpotSM Kinase assay relative to control.
SRSF protein kinase 2 (Homo sapiens), sequence (P78362 whole entry, looked up): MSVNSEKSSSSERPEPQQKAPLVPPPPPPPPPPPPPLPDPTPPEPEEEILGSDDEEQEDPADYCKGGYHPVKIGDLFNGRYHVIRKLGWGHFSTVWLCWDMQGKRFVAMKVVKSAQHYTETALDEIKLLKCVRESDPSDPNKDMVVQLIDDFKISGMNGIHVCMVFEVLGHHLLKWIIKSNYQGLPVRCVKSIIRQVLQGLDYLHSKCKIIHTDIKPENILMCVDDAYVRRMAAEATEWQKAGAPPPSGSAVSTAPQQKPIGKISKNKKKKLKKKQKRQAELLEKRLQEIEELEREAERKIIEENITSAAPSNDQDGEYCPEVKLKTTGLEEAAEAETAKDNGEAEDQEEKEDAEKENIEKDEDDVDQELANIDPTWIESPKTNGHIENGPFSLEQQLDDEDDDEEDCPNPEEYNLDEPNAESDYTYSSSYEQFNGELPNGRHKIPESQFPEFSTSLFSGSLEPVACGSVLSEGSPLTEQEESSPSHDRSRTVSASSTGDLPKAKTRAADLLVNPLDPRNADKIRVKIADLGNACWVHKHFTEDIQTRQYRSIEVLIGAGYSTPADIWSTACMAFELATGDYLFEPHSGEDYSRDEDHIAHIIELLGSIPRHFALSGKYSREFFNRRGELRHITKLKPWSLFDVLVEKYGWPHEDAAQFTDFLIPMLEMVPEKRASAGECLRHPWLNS

Casein kinase I isoform epsilon, sequence (P49674 whole entry, looked up, canonical isoform): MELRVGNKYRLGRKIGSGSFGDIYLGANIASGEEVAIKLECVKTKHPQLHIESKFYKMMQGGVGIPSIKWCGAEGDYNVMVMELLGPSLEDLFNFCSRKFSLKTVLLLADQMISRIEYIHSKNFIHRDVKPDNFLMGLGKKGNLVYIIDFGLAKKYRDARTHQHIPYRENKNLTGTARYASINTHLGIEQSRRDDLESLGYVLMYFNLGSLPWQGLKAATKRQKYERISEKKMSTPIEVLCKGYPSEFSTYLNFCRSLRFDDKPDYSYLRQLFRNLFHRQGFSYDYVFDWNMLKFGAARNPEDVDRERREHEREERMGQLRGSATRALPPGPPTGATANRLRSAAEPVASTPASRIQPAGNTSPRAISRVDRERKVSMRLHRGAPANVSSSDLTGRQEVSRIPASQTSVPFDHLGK

In the case of `C[C@H](Nc1ncnc2nc[nH]c12)c1cc2cccc(Cl)c2c(=O)n1-c1ccccc1`, the Activity in experiment [1] was 103%; in experiment [2], 97.2%; in [3], 90.9%; in [4] it was 91%; in experiment [5] it was 94%; in experiment [6], 93.6%. Further, the Activity in experiment [7] was found to be 99.5%; in experiment [8] it was 97.3%; in experiment [9] it was 109%; in experiment [10], 92.6%; in [11], 100%; in [12] it was 92.3%.

`CC[C@H](Nc1ncnc2[nH]cnc12)c1nc2cccc(F)c2c(=O)n1-c1ccccc1`: the Activity in [1] is 103%; in experiment [2], 96.5%; in [3], 92.9%; in [4], 96.3%; in experiment [5] it was 91.2%; in [6] it was 91.7%. In addition, the Activity was determined as 102% in [7]; 96% in [8]; 105% in experiment [9]; 93.8% in [10]; 102% in experiment [11]; 91.3% in experiment [12].

For `CC(C)Oc1ccc(-c2nn([C@@H](C)c3oc4ccc(F)cc4c(=O)c3-c3cccc(F)c3)c3ncnc(N)c23)cc1F` [UMBRALISIB], the Activity in experiment [1] came to 110%; in experiment [2] it was 100%; in [3], 39.9%; in [4], 101%; in [5] it was 97.6%; in [6] it was 84.7%. Further, the Activity in experiment [7] was determined as 97.2%; in [8], 99.8%; in experiment [9], 105%; in experiment [10], 96.6%; in [11], 105%; in [12], 86%.
